Experimental data from US20260201438A1 (priority 2022, published 2026).
≈ marks a conversion by molar mass, not a printed value.

Experiments:
E. coli ATCC 25922 [1] = assay: reference broth microdilution (rBMD); assay type: cell-based; details: Escherichia coli, ATCC25922, read-out: MIC rBMD, E. coli ATCC 25922, isolates from urine cultures; geometric mean, n = 3
S. aureus ATCC 29213 = details: CLSI M100-Ed35; cited from earlier work
E. coli ATCC 25922 [2] = details: CLSI M100-Ed35; cited from earlier work

Row | SMILES | MIC (E. coli ATCC 25922 [1]) [mg/L] | MIC CLSI QC Range (S. aureus ATCC 29213) [mg/L] | MIC CLSI QC Range (E. coli ATCC 25922 [2]) [mg/L]
1 | Cc1nnc(SCC2=C(C(=O)O)N3C(=O)[C@@H](NC(=O)Cn4cnnn4)[C@H]3SC2)s1 [Cefazolin] | 2 (≈ 4.4 µM) |  | 
2 | CO[C@@]1(NC(=O)Cc2cccs2)C(=O)N2C(C(=O)O)=C(COC(N)=O)CS[C@@H]21 [Cefoxitin] |  | 1.0 to 4.0 | 
3 | CO/N=C(\C(=O)N[C@@H]1C(=O)N2C(C(=O)O)=C(CSc3nc(=O)c(=O)[nH]n3C)CS[C@H]12)c1csc(N)n1 [Ceftriaxone] |  | 1.0 to 8.0 | 0.03 to 0.12
4 | CO/N=C(\C(=O)N[C@@H]1C(=O)N2C(C(=O)O)=C(COC(N)=O)CS[C@H]12)c1ccco1 [Cefuroxime] |  |  | 2.0 to 8.0
5 | C[C@@H](O)[C@H]1C(=O)N2C(C(=O)O)=C(S[C@@H]3CN[C@H](C(=O)N(C)C)C3)[C@H](C)[C@H]12 [Meropenem] |  | 0.03 to 0.12 | 0.008 to 0.06
